No end group written: not given here.
Columns and labels:
[1] = tested on: natural Mi III antibody reactive human serums; experiment: Positive serum reactivity of modified RBCs in the field; format: cell-based; parameters: key: 0 or ‘−’ no agglutination; 0 or ‘−’ no agglutination; 1+ or 3=very weak agglutination; 1+ or 3=very weak agglutination; 2+ or 5=weak agglutination; 2+ or 5=weak agglutination; 3+ or 8=moderate strong agglutination; 3+ or 8=moderate strong agglutination; 4+ or 10/12=strong agglutination; 4+ or 10/12=strong agglutination; 4+ or 10/12=strong agglutination; conditions: 22 at 50, 17 and 24 at 200 μg/ml; 3 h RT then 18 h 4° C.
Experimental: The suspensions are either: • 1. incubated for 2 hours at 37° C. before being washed and suspended in a cell medium for serological analysis at a concentration of 0.8 to 3% (Method 1); or • 2. incubated for 3 to 4 hours at room temperature (circa 25° C.) followed by 18 hours at 4° C. before being washed and suspended in a cell medium for serological analysis at a concentration of 0.8 to 3% (Method 2).
Serological reactions are graded or scored by either of two established systems (0 or ‘−’ no agglutination, 1+ or 3=very weak agglutination, 2+ or 5=weak agglutination, 3+ or 8=moderate strong agglutination, 4+ or 10/12=strong agglutination)

[2] = tested on: Miltenberger Antibody Positive Panel; experiment: Reactivity of modified RBCs against the Miltenberger Antibody Positive Panel; format: cell-based, human; parameters: key to score vs panel 15 TAP2 / score vs panel 4 T7202 / score vs panel 8 T5896 / score vs panel 2 T217 / score vs panel 3 T165 / score vs panel 14 TAP1 / score vs panel 10 Mia / score vs panel 11 Mur / score vs panel 12 Gam / score vs panel 6 T6025 / score vs panel 7 T8445 / score vs panel 9 MIII / score vs panel 13 BoxH / reactivity with Panel Serum #7 (T8445) / agglutination score, Panel Serum #7 (T8445): 0 or ‘−’ no agglutination; 0 or ‘−’ no agglutination; 1+ or 3=very weak agglutination; 1+ or 3=very weak agglutination; 2+ or 5=weak agglutination; 2+ or 5=weak agglutination; 3+ or 8=moderate strong agglutination; 3+ or 8=moderate strong agglutination; 4+ or 10/12=strong agglutination; 4+ or 10/12=strong agglutination; 4+ or 10/12=strong agglutination
[3] = tested on: Miltenberger antibody positive sera; experiment: BioVue AHG card column agglutination serology of modified red blood cells; format: cell-based, human; parameters: key: 0 or ‘−’ no agglutination; 0 or ‘−’ no agglutination; 1+ or 3=very weak agglutination; 1+ or 3=very weak agglutination; 2+ or 5=weak agglutination; 2+ or 5=weak agglutination; 3+ or 8=moderate strong agglutination; 3+ or 8=moderate strong agglutination; 4+ or 10/12=strong agglutination; 4+ or 10/12=strong agglutination; 4+ or 10/12=strong agglutination
[4] = tested on: sera reactive with modified RBCs; experiment: Neutralisation of reactive sera with free peptide, retested against modified RBCs (BioVue); format: cell-based, human; parameters: key: 0 or ‘−’ no agglutination; 0 or ‘−’ no agglutination; 1+ or 3=very weak agglutination; 1+ or 3=very weak agglutination; 2+ or 5=weak agglutination; 2+ or 5=weak agglutination; 3+ or 8=moderate strong agglutination; 3+ or 8=moderate strong agglutination; 4+ or 10/12=strong agglutination; 4+ or 10/12=strong agglutination; 4+ or 10/12=strong agglutination; conditions: cells modified with the peptide-lipid construct M22; AHG test in BioVue
From the text: Optionally, where F is a peptide, the method includes the preliminary step of: • Adding an amount of the peptide to the sample of the serum; where the amount of the peptide is sufficient to neutralize non-specific agglutination or confirm specificity of the reactive antibody.

M22: DOPE peptide-lipid construct: MUTK peptide SQTNDKHKRD, leader c, spacer CMG(2) (SQTNDKHKRDC; also: DOPE peptide-lipid construct via leader Cys, spacer CMG(2))
10: score vs Mi III reactive serum 488-6 [1] | score vs panel 6 T6025 ([2]; Table 8, construct 200 μg/ml)
0: score vs Mi III reactive serum 589-6 [1] | score vs Mi III reactive serum 912485657-9 [1] | score vs Mi III reactive serum 914146821-8 [1] | score vs Mi III reactive serum 922390844-5 [1] | score vs Mi III reactive serum 926190919-0 [1] | score vs Mi III reactive serum 926555294-1 [1] | score vs Mi III reactive serum 927175131-4 [1] | score vs Mi III reactive serum 927299700-1 [1] | score vs Mi III reactive serum 927516053-2 [1] | score vs Mi III reactive serum 927619701-8 [1] | score vs Mi III reactive serum 932360876-4 [1] | score vs Mi III reactive serum 932467774-5 [1] | score vs Mi III reactive serum 932809044-1 [1] | score vs Mi III reactive serum 942223755-1 [1] | score vs Mi III reactive serum 942404708-4 (row interpreted Mur) [1] | score vs Mi III reactive serum 942404708-4 (row interpreted other) [1] | score vs Mi III reactive serum 942421413-0 [1] | score vs Mi III reactive serum 942423002-4 [1] | score vs Mi III reactive serum 942433813-3 [1] | score vs Mi III reactive serum 942433855-3 [1] | score vs Mi III reactive serum 942442720-2 [1] | score vs Mi III reactive serum 942448627-8 [1] | score vs Mi III reactive serum 942753165-4 [1] | score vs Mi III reactive serum 942762589-1 [1] | score vs Mi III reactive serum 9322338631 [1] | score vs Mi III reactive serum 9328118428 [1] | score vs Mi III reactive serum 9328154853 [1] | score vs Mi III reactive serum 9424248012 [1] | score vs Mi III reactive serum 9424292604 [1] | score vs Mi III reactive serum 9424396133 [1] | score vs Mi III reactive serum 9425256505 [1] | score vs Mi III reactive serum 9427455417 [1] | score vs Mi III reactive serum 9427613497 [1] | score vs Mi III reactive serum 9427615156 [1] | score vs Mi III reactive serum S-3 [1] | score vs panel 2 T217 ([2]; Table 8, construct 200 μg/ml) | score vs panel 3 T165 ([2]; Table 8, construct 200 μg/ml) | score vs panel 4 T7202 ([2]; Table 8, construct 200 μg/ml) | score vs panel 7 T8445 ([2]; Table 8, construct 200 μg/ml) | score vs panel 8 T5896 ([2]; Table 8, construct 200 μg/ml) | score vs panel 9 MIII ([2]; Table 8, construct 200 μg/ml) | score vs panel 10 Mia ([2]; Table 8, construct 200 μg/ml) | score vs panel 11 Mur ([2]; Table 8, construct 200 μg/ml) | score vs panel 15 TAP2 ([2]; Table 8, construct 200 μg/ml) | BioVue score vs positive sample 2 T217 (T) ([3]; construct 50 μg/ml) | BioVue score vs positive sample 3 T165 (Mur) ([3]; construct 50 μg/ml) | BioVue score vs positive sample 4 T7202 (M) ([3]; construct 50 μg/ml) | BioVue score vs positive sample 8 T5896 (M + K + Mur) ([3]; construct 50 μg/ml) | TAP 2 Serum BioVue AHG score ([3]; construct 100 μg/ml)
superior sensitivity and specificity: sensitivity and specificity towards a human polyclonal antibody panel compared with sequence 1 ([2]; MUT peptides, prior art sequence 1)
5: score vs Mi III reactive serum 621-3 [1] | score vs Mi III reactive serum 9325490091 [1] | score vs Mi III reactive serum 9328791834 [1]
8: score vs Mi III reactive serum 9327986660 [1] | BioVue score vs TAP1 ([3]; construct 50 μg/ml) | Pre-neutralisation serology, PAC74 [4] | Pre-neutralisation serology, TAP1 [4]
3: score vs panel 12 Gam ([2]; Table 8, construct 200 μg/ml)
